These results are taken from US20230279025A1, “KRAS G12D INHIBITORS” (Mirati Therapeutics, Inc., priority 2020, published 2023).

For this test, the target named is KRas G12D (Homo sapiens (Human), UniProt P01116, G12D). Nature of the test: KRas G12D Binding Assay (TR-FRET displacement of Cy5 labelled tracer). The settings on record: GDP-loaded KRAS G12D (amino acids 1:169), 60 minute incubation at 22° C. How it is done:
After a 60 minute incubation at 22° C., the reaction was measured using a PerkinElmer EnVision multimode plate reader via TR-FRET dual wavelength detection, and the percent of control (POC) calculated using a ratiometric emission factor. […] The POC values were fit to a 4-parameter logistic curve and the IC50 value was determined as the concentration where the curve crosses 50 POC.
ND stands for “not determined.”

Chain of KRas G12D (P01116 other isoform, or with tags, fused parts or gaps G12D): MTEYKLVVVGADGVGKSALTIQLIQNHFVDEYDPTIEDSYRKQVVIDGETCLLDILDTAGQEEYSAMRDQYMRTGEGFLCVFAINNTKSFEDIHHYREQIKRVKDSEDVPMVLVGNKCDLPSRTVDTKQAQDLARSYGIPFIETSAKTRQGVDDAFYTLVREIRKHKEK

The compound `Fc1c(-c2cccc3c2CCC3)ncc2c(N3CC4CCC(C3)N4)nc(OC[C@@]34CCCN3C[C@H](F)C4)nc12` [Example 428, 4-(3,8-diazabicyclo[3.2.1]octan-3-yl)-7-(2,3-dihydro-1H-inden-4-yl)-8-fluoro-2-(((2R,7aS)-2-fluorotetrahydro-1H-pyrrolizin-7a(5H)-yl)methoxy)pyrido[4,3-d]pyrimidine] showed an IC50 of 92.1 nM. Consider `CC1(C)CN2C[C@H](F)CC2(COc2nc(N3CC4CCC(C3)N4)c3cnc(-c4cccc5cccc(Cl)c45)c(F)c3n2)C1` (mixture of isomers) [Example 325, 4-((1R,5S)-3,8-diazabicyclo[3.2.1]octan-3-yl)-7-(8-chloronaphthalen-1-yl)-8-fluoro-2-((6-fluoro-2,2-dimethyltetrahydro-1H-pyrrolizin-7a(5H)-yl)methoxy)pyrido[4,3-d]pyrimidine (racemic, trans)], for which the IC50 worked out at 141 nM.

`Fc1c(-c2ccccc2Cl)ncc2c(N3C[C@H]4CC[C@@H](C3)N4)nc(OCC34CCCN3CCC4)nc12` [Example 310, 4-((1R,5S)-3,8-diazabicyclo[3.2.1]octan-3-yl)-7-(2-chlorophenyl)-8-fluoro-2-((hexahydro-1H-pyrrolizin-7a-yl)methoxy)pyrido[4,3-d]pyrimidine]: the IC50 is 559 nM.

Turning to `Fc1c(-c2ccccc2Cl)ncc2c(N3CC4CCC(C3)N4)nc(OC[C@@]34CCCN3C[C@H](F)C4)nc12` (stereo in doubt) [Example 414, 4-((1R,5S)-3,8-diazabicyclo[3.2.1]octan-3-yl)-7-(2-chlorophenyl)-8-fluoro-2-((2-fluorotetrahydro-1H-pyrrolizin-7a(5H)-yl)methoxy)pyrido[4,3-d]pyrimidine], the IC50 was determined as 873 nM. Then `CNC(=O)O[C@@H]1CN2CCC[C@]2(COc2nc(N3C[C@H]4CC[C@@H](C3)N4)c3cnc(-c4cccc5cccc(Cl)c45)c(F)c3n2)C1` [Example 435, (2S,7aR)-7a-(((4-((1R,5S)-3,8-diazabicyclo[3.2.1]octan-3-yl)-7-(8-chloronaphthalen-1-yl)-8-fluoropyrido[4,3-d]pyrimidin-2-yl)oxy)methyl)hexahydro-1H-pyrrolizin-2-yl methylcarbamate], with 28.2 nM; and `CC(C)Oc1ccccc1-c1ncc2c(N3CC4CCC(C3)N4)nc(OC[C@@]34CCCN3C[C@H](F)C4)nc2c1F` (stereo in doubt) [Example 416, 4-((1R,5S)-3,8-diazabicyclo[3.2.1]octan-3-yl)-8-fluoro-2-((2-fluorotetrahydro-1H-pyrrolizin-7a(5H)-yl)methoxy)-7-(2-isopropoxyphenyl)pyrido[4,3-d]pyrimidine], with 1950 nM.

`Fc1c(-c2cccc(Cl)c2C2CC2)ncc2c(N3C[C@H]4CC[C@@H](C3)N4)nc(OCC34CCCN3CCC4)nc12` [Example 322, 4-((1R,5S)-3,8-diazabicyclo[3.2.1]octan-3-yl)-7-(3-chloro-2-cyclopropylphenyl)-8-fluoro-2-((tetrahydro-1H-pyrrolizin-7a(5H)-yl)methoxy)pyrido[4,3-d]pyrimidine] registered an IC50 of 4.9 nM. In turn, `Fc1c(-c2cccc3cccc(Cl)c23)ncc2c(N3C[C@H]4CC[C@@H](C3)N4)nc(OCC34CCCN3CCOC4)nc12` (stereo partly drawn) [Example 200, 8a-(((4-((1R,5S)-3,8-diazabicyclo[3.2.1]octan-3-yl)-7-(8-chloronaphthalen-1-yl)-8-fluoropyrido[4,3-d]pyrimidin-2-yl)oxy)methyl)hexahydro-1H-pyrrolo[2,1-c][1,4]oxazine] came in with a 50% inhibitory concentration (IC50) of 230 nM. This IC50 lies about 47-fold higher than the previous one. `COC(c1ccc(O)cc1-c1ncc2c(N3CC4CCC(C3)N4)nc(OC[C@@]34CCCN3C[C@H](F)C4)nc2c1F)C(F)(F)F` (stereo in doubt) [Example 390, 3-(4-((1R,5S)-3,8-diazabicyclo[3.2.1]octan-3-yl)-8-fluoro-2-((2-fluorotetrahydro-1H-pyrrolizin-7a(5H)-yl)methoxy)pyrido[4,3-d]pyrimidin-7-yl)-4-(2,2,2-trifluoro-1-methoxyethyl)phenol]: the half-maximal inhibitory concentration (IC50) was 36.8 nM. `CN(C)c1nc(N2CC3CCC(C2)N3)c2cnc(-c3cc(O)cc4ccccc34)c(F)c2n1` [Example 184, 4-[4-(3,8-diazabicyclo[3.2.1]octan-3-yl)-2-(dimethylamino)-8-fluoro-pyrido[4,3-d]pyrimidin-7-yl]naphthalen-2-ol] came in with an IC50 of 1990 nM.

Compound `Nc1nc2c(-c3ncc4c(N5C[C@H]6CC[C@@H](C5)N6)nc(OCC56CCCN5CCC6)nc4c3F)ccc(F)c2s1` [Example 455, 4-(4-((1R,5S)-3,8-diazabicyclo[3.2.1]octan-3-yl)-8-fluoro-2-((hexahydro-1H-pyrrolizin-7a-yl)methoxy)pyrido[4,3-d]pyrimidin-7-yl)-7-fluorobenzo[d]thiazol-2-amine] came in with an IC50 of 17 nM. Compound `CN1CC[C@H](Oc2nc(N3C[C@H]4CC[C@@H](C3)N4)c3cnc(-c4cccc5cccc(Cl)c45)c(F)c3n2)C1` [Example 359, 4-((1R,5S)-3,8-diazabicyclo[3.2.1]octan-3-yl)-7-(8-chloronaphthalen-1-yl)-8-fluoro-2-(((S)-1-methylpyrrolidin-3-yl)oxy)pyrido[4,3-d]pyrimidine] displayed an IC50 of 1640 nM. The compound `CC(C)c1ccncc1-c1ncc2c(N3C[C@H]4CC[C@@H](C3)N4)nc(OCC34CCCN3CCC4)nc2c1F` [Example 306, 4-((1R,5S)-3,8-diazabicyclo[3.2.1]octan-3-yl)-8-fluoro-2-((hexahydro-1H-pyrrolizin-7a-yl)methoxy)-7-(4-isopropylpyridine-3-yl)pyrido[4,3-d]pyrimidine] yielded an IC50 of 260 nM.

Compound `CN1CC[C@H](COc2nc(N3C[C@H]4CC[C@@H](C3)N4)c3cnc(-c4cccc5cccc(Cl)c45)c(F)c3n2)C1` [Example 357, 4-((1R,5S)-3,8-diazabicyclo[3.2.1]octan-3-yl)-7-(8-chloronaphthalen-1-yl)-8-fluoro-2-(((S)-1-methylpyrrolidin-3-yl)methoxy)pyrido[4,3-d]pyrimidine] returned a concentration for half-maximal inhibition (IC50) of 438 nM. `CCn1ccc2cccc(-c3ncc4c(N5C[C@H]6CC[C@@H](C5)N6)nc(OCC56CCCN5CCC6)nc4c3F)c21` [Example 427, 4-((1R,5S)-3,8-diazabicyclo[3.2.1]octan-3-yl)-7-(1-ethyl-1H-indol-7-yl)-8-fluoro-2-((hexahydro-1H-pyrrolizin-7a-yl)methoxy)pyrido[4,3-d]pyrimidine] had an IC50 of 35.3 nM. As to `Oc1cc(-c2ncc3c(N4C[C@H]5CC[C@@H](C4)N5)nc(OCC45CCCN4CCC5)nc3c2F)c2c(F)cccc2c1` [Example 367, 4-(4-((1R,5S)-3,8-diazabicyclo[3.2.1]octan-3-yl)-8-fluoro-2-((tetrahydro-1H-pyrrolizin-7a(5H)-yl)methoxy)pyrido[4,3-d]pyrimidin-7-yl)-5-fluoronaphthalen-2-ol tris(2,2,2-trifluoroacetate)], the IC50 amounted to 0.7 nM. Against the preceding compound, the IC50 is about 50-fold lower. The figure for `CN1C[C@H](NC(=O)c2cccc(C=O)c2)C[C@H]1COc1nc(N2C[C@H]3CC[C@@H](C2)N3)c2cnc(-c3cccc4cccc(Cl)c34)c(F)c2n1` [Example 354, N-((3R,5S)-5-(((4-((1R,5S)-3,8-diazabicyclo[3.2.1]octan-3-yl)-7-(8-chloronaphthalen-1-yl)-8-fluoropyrido[4,3-d]pyrimidin-2-yl)oxy)methyl)-1-methylpyrrolidin-3-yl)-3-formylbenzamide] is 368 nM; for `O=C(NCCOc1nc(N2C[C@H]3CC[C@@H](C2)N3)c2cnc(-c3cc(O)cc4ccccc34)c(F)c2n1)c1ccc(S(=O)(=O)F)cc1` [Example 212, 4-((2-((4-((1R,5S)-3,8-diazabicyclo[3.2.1]octan-3-yl)-8-fluoro-7-(3-hydroxynaphthalen-1-yl)pyrido[^4,3-d]pyrimidin-2-yl)oxy)ethyl)carbamoyl)benzenesulfonyl fluoride bis(2,2,2-trifluoroacetate)] it is 1220 nM.

Compound `CCCc1cccc2cccc(-c3ncc4c(N5C[C@H]6CC[C@@H](C5)N6)nc(OCC56CCCN5CCC6)nc4c3F)c12` [Example 254, 4-((1R,5S)-3,8-diazabicyclo[3.2.1]octan-3-yl)-8-fluoro-2-((hexahydro-1H-pyrrolizin-7a-yl)methoxy)-7-(8-propylnaphthalen-1-yl)pyrido[4,3-d]pyrimidine] gave an IC50 of 6.1 nM.

In the case of `Cn1cnnc1CCOc1nc(N2C[C@H]3CC[C@@H](C2)N3)c2cnc(-c3cccc4cccc(Cl)c34)c(F)c2n1` [Example 154, 4-((1R,5S)-3,8-diazabicyclo[3.2.1]octan-3-yl)-7-(8-chloronaphthalen-1-yl)-8-fluoro-2-(2-(4-methyl-4H-1,2,4-triazol-3-yl)ethoxy)pyrido[4,3-d]pyrimidine], the half-inhibitory concentration (IC50) is 6530 nM.

In turn, `CC(C)c1c(F)cc(O)cc1-c1ncc2c(N3C[C@H]4CC[C@@H](C3)N4)nc(OC[C@@]34CCCN3C[C@H](F)C4)nc2c1F` [Example 290, 3-(4-((1R,5S)-3,8-diazabicyclo[3.2.1]octan-3-yl)-8-fluoro-2-(((2R,7aS)-2-fluorotetrahydro-1H-pyrrolizin-7a(5H)-yl)methoxy)pyrido[4,3-d]pyrimidin-7-yl)-5-fluoro-4-isopropylphenol] came in with a half-maximal inhibitory concentration (IC50) of 2.1 nM. The figure for `NC(=O)Cc1cccc2cccc(-c3ncc4c(N5C[C@H]6CC[C@@H](C5)N6)nc(OCC56CCCN5CCC6)nc4c3F)c12` [Example 240, 2-(8-(4-((1R,5S)-3,8-diazabicyclo[3.2.1]octan-3-yl)-8-fluoro-2-((tetrahydro-1H-pyrrolizin-7a(5H)-yl)methoxy)pyrido[4,3-d]pyrimidin-7-yl)naphthalen-1-yl)acetamide] is 315 nM. In turn, `Cc1cc(-c2ncc3c(N4C[C@H]5CC[C@@H](C4)N5)nc(OCC45CCCN4CCC5)nc3c2F)c2c(Cl)cccc2c1` [Example 175, 4-((1R,5S)-3,8-diazabicyclo[3.2.1]octan-3-yl)-7-(8-chloro-3-methylnaphthalen-1-yl)-8-fluoro-2-((hexahydro-1H-pyrrolizin-7a-yl)methoxy)pyrido[4,3-d]pyrimidine] showed a concentration for half-maximal inhibition (IC50) of 63.8 nM.
